Reference: patent US5589477A, “Pyrimidine derivatives and drugs” (Nippon Shinyaku Company, Limited, priority 1990, dated 1996)
Where a name gives a salt, the structure may show the parent alone.

What was measured:
mice = assay: Acute toxicity (mice, p.o.); format: in vivo; conditions: 1000 mg/kg p.o., male mice, 72 hours
Experimental: Male mice, 6 weeks of age (4 mice/group) were deprived of foods overnight. Test drugs suspended in 0.5% methyl cellulose solution were administered orally to the mice. Whether the animals were dead or not was observed 72 hours after the treatment of the drugs.

muscarinic M1 receptors = target: T1, muscarinic M1 receptors (Rattus norvegicus, UniProt P08482); assay: Binding assay for muscarinic M1 receptors ([^3 H]pirenzepine displacement, rat brain membranes); conditions: 1 nM [^3 H]pirenzepine, pH 7.4, 25° C., 60 minutes
T1 construct: receptor membrane preparations from rat brain; from tissue; host or cells: rat brain membranes
T1 sequence (P08482 1-460): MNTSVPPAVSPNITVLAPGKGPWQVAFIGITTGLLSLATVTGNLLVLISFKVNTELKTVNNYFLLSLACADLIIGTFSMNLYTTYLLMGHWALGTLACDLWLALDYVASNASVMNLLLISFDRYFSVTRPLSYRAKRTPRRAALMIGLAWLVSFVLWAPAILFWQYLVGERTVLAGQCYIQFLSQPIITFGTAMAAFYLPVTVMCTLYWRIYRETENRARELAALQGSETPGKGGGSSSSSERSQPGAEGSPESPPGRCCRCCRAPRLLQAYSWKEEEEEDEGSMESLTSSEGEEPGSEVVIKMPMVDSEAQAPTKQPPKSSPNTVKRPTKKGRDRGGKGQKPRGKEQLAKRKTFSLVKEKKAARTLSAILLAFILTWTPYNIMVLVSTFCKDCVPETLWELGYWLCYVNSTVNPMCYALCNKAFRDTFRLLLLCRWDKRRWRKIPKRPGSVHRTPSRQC
Experimental: (3) Effect on muscarinic M1 receptors
Binding assay for muscarinic M1 receptors was carried out according to the method of Watson and Yamamura [Life Sci. 3001-3011(1983)]. Namely, the receptor membrane preparations from rat brain were incubated with 1 nM [^3 H]pirenzepine in 10 mM Na/K phosphate buffer solution (pH 7.4) at 25° C. for 60 minutes. 1 μM of atropine was used as a displacer.

| Compound | Lethality (Number of dead animals/Number of animals used) (mice) | IC50 (muscarinic M1 receptors) |
| --- | --- | --- |
| COc1ccc(-c2nc(C)cc(OCCN3CCN(C(c4ccccc4)c4ccccc4)CC3)n2)cc1 [Example 3, 4-[2-(4-diphenylmethylpiperazino)ethoxy]-2-(4-methoxyphenyl)-6-methylpyrimidine] | 0/4 | – |
| COc1ccc(-c2nc(C)cc(N3CCN(C(c4ccccc4)c4ccccc4)CC3)n2)cc1 [Example 4, 4-(4-diphenylmethylpiperazino)-2-(4-methoxyphenyl)-6-methylpyrimidine] | 0/4 | – |
| Cc1cc(OCCN2CCN(c3ccccc3)CC2)nc(-c2ccccc2)n1.O=C(O)/C=C\C(=O)O [Example 11, 4-Methyl-2-phenyl-6-[2-(4-phenylpiperazino)ethoxy] pyrimidine maleate] | 0/4 | – |
| Cc1cc(OCCN2CCN(C(c3ccccc3)c3ccccc3)CC2)nc(-c2ccccc2)n1 [Example 13, 4-[2-(4-diphenylmethylpiperazino)ethoxy]-6-methyl-2-phenylpyrimidine] | 0/4 | – |
| COc1ccc(-c2nc(C)cc(OCCN3CCN(c4ccccc4)CC3)n2)cc1 [Example 21, 2-(4-methoxyphenyl)-4-methyl-6-[2-(4-phenylpiperazino)ethoxy]pyrimidine] | 0/4 | – |
| Cc1cc(O[C@H]2CN3CCC2CC3)nc(-c2ccc(F)cc2)n1 [Example 27, (R)-(-)-4-(1-azabicyclo[2,2,2]octo-3-yloxy)-2-(4-fluorophenyl) 6-methylpyrimidine maleate] | – | 170 nM |
| Cc1cc(N2CCN(C(c3ccccc3)c3ccccc3)CC2)nc(-c2ccccc2)n1 [Example 35, 4-(4-diphenylmethylpiperazino)-6-methyl-2-phenylpyrimidine] | 0/4 | – |
| Cc1cc(O[C@H]2CN3CCC2CC3)nc(-c2ccc(Cl)cc2)n1 [Example 44, (R)-(-)-4-(1-azabicyclo[2,2,2]octo-3-yloxy)-2-(4-chlorophenyl) 6-methylpyrimidine maleate] | 0/4 | 240 nM |
| Cc1cc(O[C@H]2CN3CCC2CC3)nc(-c2ccc(O)cc2)n1 [Example 58, (R)-(-)-4-(1-azabicyclo[2,2,2]octo-3-yloxy)-2-(4-hydroxyphenyl) 6-methylpyrimidine maleate] | 0/4 | 810 nM |
| COc1ccc(-c2nc(O[C@H]3CN4CCC3CC4)cc(C(C)(C)C)n2)cc1 [Example 60, (R)-(-)-4-(1-azabicyclo[2,2,2]octo-3-yloxy)-6-tert-butyl-2-(4-methoxyphenyl)pyrimidine maleate] | – | 3100 nM |
| Fc1ccc(-c2nc(O[C@H]3CN4CCC3CC4)cc(C(F)(F)F)n2)cc1 [Example 63, (R)-(-)-4-(1-azabicyclo[2,2,2]octo-3-yloxy)-2-(4-fluorophenyl) 6-trifluoromethylpyrimidine maleate] | – | 600 nM |
